The values that follow come from ChEMBL document CHEMBL4665654, “Design, synthesis and evaluation of antiproliferative activity of fluorinated betulinic acid” (Bioorg Med Chem, 2019).

The source made the active and inactive calls. The rule behind the calls is not given here.

For experiment [1], the system named is A549. Briefly: Antiproliferative activity against human A549 cells assessed as cell growth inhibition after 72 hrs by sulforhodamine B assay. In kind it is functional, cell-based. The settings on record: A549, 72 h. Background: In SRB staining, fixed cells bind dye roughly in proportion to their protein.
Experiment [2] deals with MDA-MB-231. Briefly: Antiproliferative activity against human MDA-MB-231 cells assessed as cell growth inhibition after 72 hrs by sulforhodamine B assay. In kind it is functional, cell-based. Particulars: MDA-MB-231, 72 h.
Experiment [3] has as its system KB. Description: Antiproliferative activity against human KB cells assessed as cell growth inhibition after 72 hrs by sulforhodamine B assay. Type of experiment: functional, cell-based.
A short description of experiment [4]: Antiproliferative activity against human KB-VIN cells assessed as cell growth inhibition after 72 hrs by sulforhodamine B assay. Type of experiment: functional, cell-based. Particulars: KBVIN.
The test system of experiment [5] is MCF7. Description: Antiproliferative activity against human MCF7 cells assessed as cell growth inhibition after 72 hrs by sulforhodamine B assay. In kind it is functional, cell-based. The settings on record: MCF7, 72 h.
Experiment [6] has as its target DNA topoisomerase 2-alpha (Homo sapiens) (UniProt P11388). Briefly: Inhibition of recombinant human topoisomerase-2alpha assessed as decrease in relaxation/nicking of kinetoplast DNA using kDNA as substrate at 100 uM after 15 mins by ethidium bromide staining based agarose gel electrophoresis analysis.

Chain of DNA topoisomerase 2-alpha (Homo sapiens) (P11388 whole entry): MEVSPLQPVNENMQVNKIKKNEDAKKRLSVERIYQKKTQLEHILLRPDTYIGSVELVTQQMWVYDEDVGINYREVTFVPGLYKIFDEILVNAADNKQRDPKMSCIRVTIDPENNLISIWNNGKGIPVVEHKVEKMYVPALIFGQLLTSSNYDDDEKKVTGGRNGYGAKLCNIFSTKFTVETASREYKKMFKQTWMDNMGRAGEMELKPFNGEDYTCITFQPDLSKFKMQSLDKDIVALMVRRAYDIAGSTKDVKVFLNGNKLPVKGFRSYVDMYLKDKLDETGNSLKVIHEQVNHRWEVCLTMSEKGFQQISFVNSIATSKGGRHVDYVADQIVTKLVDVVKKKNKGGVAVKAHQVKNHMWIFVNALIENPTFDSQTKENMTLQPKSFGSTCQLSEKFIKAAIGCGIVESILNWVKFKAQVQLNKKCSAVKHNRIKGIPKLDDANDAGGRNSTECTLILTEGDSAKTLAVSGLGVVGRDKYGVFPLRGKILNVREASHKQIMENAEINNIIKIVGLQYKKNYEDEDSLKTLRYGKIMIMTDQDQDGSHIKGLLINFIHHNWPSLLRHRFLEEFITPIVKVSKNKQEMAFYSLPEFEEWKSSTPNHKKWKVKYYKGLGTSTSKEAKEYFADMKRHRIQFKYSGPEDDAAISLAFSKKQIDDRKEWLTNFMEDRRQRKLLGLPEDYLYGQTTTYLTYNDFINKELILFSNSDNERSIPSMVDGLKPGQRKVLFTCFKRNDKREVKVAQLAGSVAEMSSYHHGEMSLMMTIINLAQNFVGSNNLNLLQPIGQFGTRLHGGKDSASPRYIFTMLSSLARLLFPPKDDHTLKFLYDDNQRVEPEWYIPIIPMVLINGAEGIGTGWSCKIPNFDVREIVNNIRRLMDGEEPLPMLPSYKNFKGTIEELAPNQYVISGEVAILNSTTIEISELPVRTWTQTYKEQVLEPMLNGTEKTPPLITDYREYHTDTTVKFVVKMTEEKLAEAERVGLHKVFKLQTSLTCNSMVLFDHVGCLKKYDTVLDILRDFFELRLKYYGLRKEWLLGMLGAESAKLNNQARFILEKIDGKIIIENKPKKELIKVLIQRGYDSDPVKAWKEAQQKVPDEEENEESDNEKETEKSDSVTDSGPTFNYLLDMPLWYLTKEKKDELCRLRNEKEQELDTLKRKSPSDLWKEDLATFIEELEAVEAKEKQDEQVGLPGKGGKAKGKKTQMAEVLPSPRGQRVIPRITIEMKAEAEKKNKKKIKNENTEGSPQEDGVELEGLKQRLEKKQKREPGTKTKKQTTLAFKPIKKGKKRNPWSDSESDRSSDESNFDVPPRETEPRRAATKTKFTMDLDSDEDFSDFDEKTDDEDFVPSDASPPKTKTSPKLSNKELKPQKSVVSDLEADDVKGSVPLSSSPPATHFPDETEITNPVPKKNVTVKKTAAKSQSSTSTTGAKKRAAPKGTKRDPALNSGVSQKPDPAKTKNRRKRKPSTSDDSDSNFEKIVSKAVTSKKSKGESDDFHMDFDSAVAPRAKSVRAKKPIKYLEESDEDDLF

Turning to `C=C(C)[C@@H]1CC[C@]2(C(=O)OC)CC[C@]3(C)[C@H](CC[C@@H]4[C@@]5(C)CC(F)[C@H](O)C(C)(C)[C@@H]5CC[C@]43C)[C@@H]12` (mixture of isomers), the IC50 in experiment [1], in experiment [2], in experiment [3], in experiment [4] and in experiment [5] was more than 10 µM in each case.

With `CC(=O)O[C@H]1C(=O)[C@@]2(C)[C@H]([C@H](OC(=O)c3ccccc3)[C@]3(O)C[C@H](OC(=O)[C@H](O)[C@@H](NC(=O)c4ccccc4)c4ccccc4)C(C)=C1C3(C)C)[C@]1(OC(C)=O)CO[C@@H]1C[C@@H]2O` [PACLITAXEL], the IC50 (as a rule, the concentration that gives 50% inhibition) in experiment [4] is 2.9 µM.

`C=C(C)[C@@H]1CC[C@]2(C(=O)OCc3ccc(Cl)cc3)CC[C@]3(C)[C@H](CC[C@@H]4[C@@]5(C)CC[C@@](O)(C(F)(F)F)C(C)(C)[C@@H]5CC[C@]43C)[C@@H]12`: the IC50 in experiment [1], in experiment [2], in experiment [3], in experiment [4] and in experiment [5] was more than 40 µM throughout.

As to `C=C(C)[C@@H]1CC[C@]2(C(=O)OCc3ccc(Cl)cc3)CC[C@]3(C)[C@H](CC[C@@H]4[C@@]5(C)CCC(=O)C(C)(C)[C@@H]5CC[C@]43C)[C@@H]12`, the IC50 in experiment [1], in experiment [2], in experiment [3], in experiment [4] and in experiment [5] was more than 40 µM each time.

For the compound `C=C(C)[C@@H]1CC[C@]2(C(=O)OC)CC[C@]3(C)[C@H](CC[C@@H]4[C@@]5(C)CC(F)[C@H](OC(=O)CC(C)(C)C(=O)O)C(C)(C)[C@@H]5CC[C@]43C)[C@@H]12` (some centres not stated), the IC50 in experiment [1], in experiment [2], in experiment [3], in experiment [4] and in experiment [5] was more than 10 µM throughout.

Consider `COc1cc([C@@H]2c3cc4c(cc3[C@@H](O[C@@H]3O[C@@H]5CO[C@@H](C)O[C@H]5[C@H](O)[C@H]3O)[C@H]3COC(=O)[C@H]23)OCO4)cc(OC)c1O`, for which, in experiment [6], the inhibition entry was “Active”.

For the compound `C=C(C)[C@@H]1CC[C@]2(C(=O)O)CC[C@]3(C)[C@H](CC[C@@H]4[C@@]5(C)CC(F)[C@H](OC(=O)CC(C)(C)C(=O)O)C(C)(C)[C@@H]5CC[C@]43C)[C@@H]12` (some centres not stated), the IC50 in experiment [1], in experiment [2], in experiment [3], in experiment [4] and in experiment [5] was more than 10 µM throughout.

As to `C=C(C)[C@@H]1CC[C@]2(C(=O)O)CC[C@]3(C)[C@H](CC[C@@H]4[C@@]5(C)CC[C@@](O)(C(F)(F)F)C(C)(C)[C@@H]5CC[C@]43C)[C@@H]12`, the IC50 in experiment [1] was 5.4 µM; in experiment [2] it was more than 10 µM; in experiment [3] it was 5.9 µM; in experiment [4], 6 µM; in experiment [5], 7.8 µM.

In the case of `C=C(C)[C@@H]1CC[C@]2(C(=O)O)CC[C@]3(C)[C@H](CC[C@@H]4[C@@]5(C)C[C@@H](F)[C@H](O)C(C)(C)[C@@H]5CC[C@]43C)[C@@H]12`, the IC50 in experiment [1] is 5.6 µM; in experiment [2], 9 µM; in experiment [3] it was 6.7 µM; in experiment [4], 6.7 µM; in experiment [5] it was 15.3 µM.

With `C=C(C)[C@@H]1CC[C@]2(C(=O)OCc3ccc(Cl)cc3)CC[C@]3(C)[C@H](CC[C@@H]4[C@@]5(C)C[C@@H](F)C(=O)C(C)(C)[C@@H]5CC[C@]43C)[C@@H]12`, the IC50 in experiment [1], in experiment [2], in experiment [3], in experiment [4] and in experiment [5] was more than 40 µM throughout.

Turning to `C=C(C)[C@@H]1CC[C@]2(C(=O)O)CC[C@]3(C)[C@H](CC[C@@H]4[C@@]5(C)C[C@H](F)[C@H](O)C(C)(C)[C@@H]5CC[C@]43C)[C@@H]12`, the IC50 in experiment [1] is 4.5 µM; in experiment [2], 12.4 µM; in experiment [3] it was 6.1 µM; in experiment [4], 6 µM; in experiment [5], 14.4 µM.

Take `C=C(C)[C@@H]1CC[C@]2(C(=O)OC)CC[C@]3(C)[C@H](CC[C@@H]4[C@@]5(C)CC[C@@](O)(C(F)(F)F)C(C)(C)[C@@H]5CC[C@]43C)[C@@H]12`: the IC50 in experiment [1], in experiment [2], in experiment [3], in experiment [4] and in experiment [5] was more than 10 µM in each case.

Consider `C=C(C)[C@@H]1CC[C@]2(C(=O)OC)CC[C@]3(C)[C@H](CC[C@@H]4[C@@]5(C)CC(F)C(=O)C(C)(C)[C@@H]5CC[C@]43C)[C@@H]12` (some centres not stated), for which the IC50 in experiment [1], in experiment [2], in experiment [3], in experiment [4] and in experiment [5] was more than 10 µM throughout.

For the compound `C=C(C)[C@@H]1CC[C@]2(C(=O)OCc3ccc(Cl)cc3)CC[C@]3(C)[C@H](CC[C@@H]4[C@@]5(C)C[C@H](F)C(=O)C(C)(C)[C@@H]5CC[C@]43C)[C@@H]12`, the IC50 in experiment [1], in experiment [2], in experiment [3], in experiment [4] and in experiment [5] was more than 40 µM each time.
